# Test results reported in patent US8658668B2, “PI3 kinase/mTOR dual inhibitor” (Eli Lilly and Company, priority 2011, dated 2014).
# pIC50: −log10 of the molar value.
# What was measured:
# [1] = tested on: MAXF 401 human tumor xenograft cells; experiment: Oncotest tumor clonogenic assay, MAXF 401; format: cell-based; settings: MAXF401, colony formation, Mammary MAXF 401, pap. adeno carcinoma, wd, read-out: Absolute IC50
# [2] = tested on: OVXF 899 human tumor xenograft cells; experiment: Oncotest tumor clonogenic assay, OVXF 899; format: cell-based; settings: colony formation, Ovary OVXF 899, pap. serous adeno carcinoma, md, read-out: Absolute IC50
# [3] = tested on: SXF 627 human tumor xenograft cells; experiment: Oncotest tumor clonogenic assay, SXF 627; format: cell-based; settings: colony formation, Sarcoma SXF 627, pleomorphic rhabdomyosarcoma, pd, read-out: Absolute IC50
# A204 = experiment: Cell proliferation assay (CellTiter-Glo), A204; format: cell-based; settings: Homo sapiens, A204, 72 h
# Method: (§1) Plate cells in a 96-well plate at 2000 cells/well in 100 μL of cell specific medium (for U87MG use DMEM, 10% FBS, 25 mM 4-(2-hydroxyethyl)-1-piperazineethanesulfonic acid (HEPES), 1.0 mM sodium pyruvate, and 0.1 mM Non Essential Amino Acids (ATCC Cat.#30-2002); for HT1080 use Eagle's MEM, 10% FBS (ATCC Cat.#30-2003); for H1975, A2780, SJSA-1 and 786-O use RPMI 1640, 10% FBS (ATCC Cat.#30-2001); for A204 use McCoy's 5A, 10% FBS (ATCC Cat.#30-2007) except in column 1 use medium only as the blank control. Incubate the plates overnight at 37° C. and 5% CO2. On the next day, prepare compound stocks at 1 mM in DMSO and serially dilute in DMSO in a 96-well round bottom polypropylene plate. Assay compounds at 10 concentrations in duplicate, 4 compounds per plate.
# (§2) Transfer 4 μL of the DMSO serial dilutions to a 96 well plate and add 196 μL of culture medium to create a 10× stock for dosing. Gently transfer 11 μL of each dosing stock to the corresponding well of the cell plate resulting in a 0.2% DMSO concentration and a 111 μL final volume. […]
# (§3) Prepared the CellTiter-Glo reagent (Promega, Cat: G7571) and add 100 µL to each well after the incubation is complete, homogenize the cells by mixing on an orbital shaker for 2 min and then incubate at RT for 10 min to allow the luminescent signal to stabilize. Record the luminescent raw data with a Wallac Victor V plate reader. […]
# [4] = tested on: PAXF 546 human tumor xenograft cells; experiment: Oncotest tumor clonogenic assay, PAXF 546; format: cell-based; settings: PAXF546, colony formation, Pancreas PAXF 546, inf., mucous squamous cell carcinoma, read-out: Absolute IC50
# [5] = tested on: LXFL 529 human tumor xenograft cells; experiment: Oncotest tumor clonogenic assay, LXFL 529; format: cell-based; settings: colony formation, NSCLC LXFL 529, large cell lung carcinoma, pd, read-out: Absolute IC50
# [6] = tested on: PAXF 736 human tumor xenograft cells; experiment: Oncotest tumor clonogenic assay, PAXF 736; format: cell-based; settings: PAXF736, colony formation, Pancreas PAXF 736, adeno carcinoma, pd, read-out: Absolute IC50
# [7] = tested on: human non-small cell lung cancer cells NCI-H1975; experiment: Xenograft tumor model, NCI-H1975; format: in vivo, mouse; settings: oral gavage
# Method: Expand human glioblastoma cells U87MG and human renal carcinoma cells 786-O, in culture, harvest and inject subcutaneously onto the rear flank of athymic nude mice. Expand human non-small cell lung cancer cells NCI-H1975 in culture, harvest and inject subcutaneously onto the rear flank of CD-1 nu/nu mice. Prepare test compound in an appropriate vehicle and administer by oral gavage when tumors are established (7-21 days after implant). Tumor response is determined by tumor volume measurement performed twice a week during the course of treatment. Body weight is taken as a general measurement of toxicity.
# [8] = tested on: RXF 631 human tumor xenograft cells; experiment: Oncotest tumor clonogenic assay, RXF 631; format: cell-based; settings: colony formation, Renal RXF 631, hypernephroid adeno carcinoma, wd, read-out: Absolute IC50
# [9] = tested on: MEXF 989 human tumor xenograft cells; experiment: Oncotest tumor clonogenic assay, MEXF 989; format: cell-based; settings: colony formation, Melanoma MEXF 989, amelanotic melanoma, md, read-out: Absolute IC50
# [10] = tested on: GXF 97 human tumor xenograft cells; experiment: Oncotest tumor clonogenic assay, GXF 97; format: cell-based; settings: colony formation, Gastric GXF 97, adeno carcinoma, wd, read-out: Absolute IC50
# [11] = tested on: GXF 1172 human tumor xenograft cells; experiment: Oncotest tumor clonogenic assay, GXF 1172; format: cell-based; settings: colony formation, Gastric GXF 1172, signet-ring cell carcinoma, pd, read-out: Absolute IC50
# [12] = tested on: PXF 541 human tumor xenograft cells; experiment: Oncotest tumor clonogenic assay, PXF 541; format: cell-based; settings: colony formation, Pleuramesothelioma PXF 541, invasive pleuramesothelioma, read-out: Absolute IC50
# [13] = tested on: CXF 280 human tumor xenograft cells; experiment: Oncotest tumor clonogenic assay, CXF 280; format: cell-based; settings: colony formation, Colon CXF 280, adeno carcinoma, pd, read-out: Absolute IC50
# SJSA-1 = experiment: Cell proliferation assay (CellTiter-Glo), SJSA-1; format: cell-based; settings: Homo sapiens, SJSA-1, 72 h
# Method: as §1, §2, §3
# [14] = tested on: SXF 1301 human tumor xenograft cells; experiment: Oncotest tumor clonogenic assay, SXF 1301; format: cell-based; settings: colony formation, Sarcoma SXF 1301, malignant rhabdomyosarcoma, ud, read-out: Absolute IC50
# [15] = tested on: MEXF 462 human tumor xenograft cells; experiment: Oncotest tumor clonogenic assay, MEXF 462; format: cell-based; settings: colony formation, Melanoma MEXF 462, amelanotic melanoma, md, read-out: Absolute IC50
# 786-O = experiment: Cell proliferation assay (CellTiter-Glo), 786-O; format: cell-based; settings: Homo sapiens, 786-0, 72 h
# Method: as §1, §2, §3
structure (smiles),measurement,setting,value
"CO[C@@H](C)Cn1c(=O)n(C)c2cnc3ccc(-c4cncc(C(C)(C)O)c4)cc3c21 [Example 1, 8-[5-(1-Hydroxy-1-methylethyl)pyridin-3-yl]-1-[(2S)-2-methoxypropyl]-3-methyl-1,3-dihydro-2H-imidazo[4,5-c]quinolin-2-one]",pIC50,[1],6.82
same,pIC50,[2],6.23
same,pIC50,[3],7.02
same,pIC50,A204,7.01
same,pIC50,[4],6.98
same,pIC50,[5],6.89
same,pIC50,[6],6.76
same,% TGI,"[7]; H1975, 3 mg/kg BID",13.8%
same,% TGI,"[7]; H1975, 6 mg/kg BID",26.9%
same,% TGI,"[7]; H1975, 10 mg/kg BID",62.7%
same,pIC50,[8],7.10
same,pIC50,[9],6.73
same,pIC50,[10],7.00
same,pIC50,[11],6.85
same,pIC50,[12],7.25
same,pIC50,[13],8.15
same,pIC50,SJSA-1,7.02
same,pIC50,[14],< 6.70
same,pIC50,[15],6.81
same,pIC50,786-O,6.90
